# Columns and labels:
# [1] = Transmission scattering light intensity test; assay type: physicochemical; conditions: 40 mL 0.1% (w/v) additive solution + 840 mg edaravone particles; for Dispersion State of Edaravone: stirred 30 minutes or more; for Transmission Scattering light Intensity ΔT %: TURBISCAN Tower, 25° C., height 39-40 mm, after 10 minutes
# Protocol: Further, here, the transmission scattering light intensity means a value obtained after 10 minutes after starting a measurement of a transmission scattering light intensity, the measurement being performed by filling 20 mL of the above liquid in a cylindrical sample bottle (inner diameter: 25 mm×outer diameter: 27.5 mm×height: 72 mm) and by measuring the transmission scattering light intensity at a height of 39-40 mm of the sample bottle using a TURBISCAN Tower (manufactured Formulaction) (25° C.).
# 0.1% (w/v) aqueous solutions of drug product additives described in the following table that are substances having a function capable of dispersing solid particles in a liquid were prepared at a room temperature.
# 40 mL of each of the aqueous solutions of the additives was added to 840 mg of edaravone particles (edaravone powder, D50: 37 μm, D90: 143 μm) and the mixture was stirred using a stirrer for 30 minutes or more, and a dispersed state of the edaravone particles was confirmed.
# Further, 20 mL of the dispersion liquid obtained above was filled into a sample bottle (inner diameter: 25 mm×outer diameter: 27.5 mm×height: 72 mm), and measurement of a transmission scattering light intensity ΔT % at a height of 39-40 mm of the sample bottle was started using a TURBISCAN Tower (manufactured by Formulaction) (with a temperature set to 25° C.), and a value obtained after 10 minutes after the start of the measurement was defined as the transmission scattering light intensity ΔT % for each additive. The transmission scattering light intensities ΔT % of the additives and the dispersion state of the edaravone particles in the additive solutions are shown in the following table.
# [2] = Contact angle test; assay type: physicochemical; conditions: edaravone saturated aqueous solution with 0.1% (w/v) additive on edaravone tablet; 1 μL, after 3.1 seconds
# Protocol: Here, “80 degrees or less” means a range of 0-80 degrees. […] Here, the edaravone tablet refers to an edaravone tablet obtained by compression-molding 120 mg of edaravone (D50: 37 D90: 143 μm) in a flat punch having a diameter of 8 mm at a tableting pressure of 800 kg, and measurement of the contact angle refers to a case where the contact angle is measured using a contact angle measuring device (CAX-150 manufactured by Kyowa Interface Science) under the following conditions. • Syringe used: glass, 1 mL • Needle: 23 gauge • Liquid volume: 1 μL • Measurement time: after 3.1 seconds
# 120 mg of an edaravone drug substance (D50: 37 μm, D90: 143 μm) was compression-molded using a single-punch tableting machine (Compaction Analyzer) (punch: flat punch having a diameter of 8 mm; tableting pressure: 800 kgf), and an edaravone tablet for contact angle measurement was obtained.
# Edaravone saturated aqueous solutions in which drug product additives described in the following table that are substances having a function capable of dispersing solid particles in a liquid were dissolved 0.1% (w/v) therein were prepared at a room temperature, and contact angles with respect to the edaravone tablet prepared above were measured using a contact angle measurement device (Kyowa Interface Science, Inc., CAX-150). […]
Dispersion State of Edaravone [1],Transmission Scattering light Intensity ΔT % [1] [%],Contact Angle [2] [degrees],Compound
dispersed,6.151,53.1,Polysorbate 80
not dispersed,0.000,83.3,OC[C@@H](O)[C@@H](O)[C@H](O)[C@@H](O)CO [D-sorbitol]
